Assay results published in patent publication US20090143279A1 (priority 2007, published 2009).
Where two headings read alike, the source gives them in different places.

Legend:
[1] = test system: mitochondrial membrane potential; format: cell-based, mouse; details: Conc 20 μM; for ΔΨm (composite Z-score): normalized score vs mock-treated (DMSO) wells
reactive oxygen species = format: cell-based, mouse; details: Conc 20 μM; for ROS (composite Z-score): normalized score vs mock-treated (DMSO) wells
OXPHOS gene expression = format: cell-based, mouse; details: Conc 20 μM; for GE-HTS (composite Z-score): normalized score vs mock-treated (DMSO) wells
nuOXPHOS transcripts = format: cell-based, mouse; details: Conc 20 μM; for nucOX (composite Z-score): normalized score vs mock-treated (DMSO) wells
mtOXPHOS transcripts = format: cell-based, mouse; details: Conc 20 μM; for mitoOX (composite Z-score): normalized score vs mock-treated (DMSO) wells
cytochrome c = format: cell-based, mouse; details: Conc 20 μM; for cyt c (composite Z-score): normalized score vs mock-treated (DMSO) wells
C2C12 myotubes = details: Conc 20 μM; for Viability (composite Z-score): normalized score vs mock-treated (DMSO) wells
[2] = test system: cellular dehydrogenase activity; details: Conc 20 μM; for MTT (composite Z-score): normalized score vs mock-treated (DMSO) wells
[3] = composite Z-score vs mock-treated (DMSO) wells
[4] = normalized composite Z-score vs mock-treated (DMSO) wells

COc1cccc(-c2cc(=O)c3cc(OC)ccc3o2)c1 [6,3′-dimethoxyflavone]
ΔΨm [1, 3]: 1.915
ROS (reactive oxygen species; [3]): −0.882
GE-HTS (OXPHOS gene expression; [3]): 0.072
nucOX (nuOXPHOS transcripts; [3]): 0.087
mitoOX (mtOXPHOS transcripts; [3]): −0.021
cyt c (cytochrome c; [3]): 0.245
Viability (C2C12 myotubes; [3]): 0.413
MTT [2, 3]: −1.534

C=C1C2CC[C@@]3(C)[C@H](c4ccoc4)OC(=O)C[C@]13O[C@H]1CC(=O)C(C)(C)[C@H](C(OC(C)=O)C(=O)OC)[C@@]21C (stereo partly shown) [6-acetoxyangolensic acid methyl ester]
ΔΨm (composite Z-score) [1]: −0.055
ROS (composite Z-score) (reactive oxygen species): 1.137
GE-HTS (composite Z-score) (OXPHOS gene expression): 1.379
nucOX (composite Z-score) (nuOXPHOS transcripts): 1.291
mitoOX (composite Z-score) (mtOXPHOS transcripts): 1.272
cyt c (composite Z-score) (cytochrome c): −0.105
Viability (composite Z-score) (C2C12 myotubes): 0.671
MTT (composite Z-score) [2]: −0.663

C=C1C2CC[C@@]3(C)[C@H](c4ccoc4)OC(=O)C[C@]13O[C@H]1CC(=O)C(C)(C)[C@H](C(O)C(=O)OC)[C@@]21C (stereo partly shown) [6-hydroxyangolensic acid methyl ester]
ΔΨm [1, 3]: 0.463
ROS (reactive oxygen species; [3]): −0.249
GE-HTS (OXPHOS gene expression; [3]): −1.426
nucOX (nuOXPHOS transcripts; [3]): −1.425
mitoOX (mtOXPHOS transcripts; [3]): −1.206
cyt c (cytochrome c; [3]): 0.817
Viability (C2C12 myotubes; [3]): 1.224
MTT [2, 3]: −0.490

CC(=O)OCC(=O)[C@@]1(O)CC[C@H]2[C@@H]3C[C@H](C)C4=CC(=O)C=C[C@]4(C)[C@H]3[C@@H](O)C[C@@]21C [6alpha-methylprednisolone acetate]
ΔΨm (composite Z-score) [1]: −0.462
ROS (composite Z-score) (reactive oxygen species): 0.321
GE-HTS (composite Z-score) (OXPHOS gene expression): −0.130
nucOX (composite Z-score) (nuOXPHOS transcripts): −0.518
mitoOX (composite Z-score) (mtOXPHOS transcripts): 0.750
cyt c (composite Z-score) (cytochrome c): −0.364
Viability (composite Z-score) (C2C12 myotubes): −0.480
MTT (composite Z-score) [2]: −1.192

CC1(C)C(=O)C=C[C@@]2(C)C1CC(=O)[C@@]1(C)C3=CC(=O)O[C@@H](c4ccoc4)[C@]3(C)CCC12 (stereo partly shown) [7-deacetoxy-7-oxodeoxygedunin]
ΔΨm [1, 3]: 0.757
ROS (reactive oxygen species; [3]): −0.489
GE-HTS (OXPHOS gene expression; [3]): −1.791
nucOX (nuOXPHOS transcripts; [3]): −1.586
mitoOX (mtOXPHOS transcripts; [3]): −1.925
cyt c (cytochrome c; [3]): 0.166
Viability (C2C12 myotubes; [3]): 0.224
MTT [2, 3]: −1.467

CC(=O)O[C@H]1C[C@@H](OC(C)=O)C(C)(C)C2CC(=O)[C@]3(C)C(CC[C@@]4(C)[C@H](c5ccoc5)OC(=O)[C@H]5O[C@]543)[C@]21C (stereo partly shown) [7-deacetoxy-7-oxokhivorin]
ΔΨm [1, 3]: 0.258
ROS (reactive oxygen species; [3]): 0.070
GE-HTS (OXPHOS gene expression; [3]): 0.777
nucOX (nuOXPHOS transcripts; [3]): 0.690
mitoOX (mtOXPHOS transcripts; [3]): 0.738
cyt c (cytochrome c; [3]): −0.184
Viability (C2C12 myotubes; [3]): 0.053
MTT [2, 3]: −0.095

CC(=O)O[C@H]1C[C@@H](OC(C)=O)C(C)(C)C2C[C@@H](O)[C@]3(C)C(CC[C@@]4(C)[C@H](c5ccoc5)OC(=O)[C@H]5O[C@]543)[C@]21C (stereo partly shown) [7-deacetylkhivorin]
ΔΨm [1, 3]: −0.049
ROS (reactive oxygen species; [3]): −0.618
GE-HTS (OXPHOS gene expression; [3]): 0.477
nucOX (nuOXPHOS transcripts; [3]): 0.543
mitoOX (mtOXPHOS transcripts; [3]): 0.188
cyt c (cytochrome c; [3]): 0.079
Viability (C2C12 myotubes; [3]): 0.893
MTT [2, 3]: 0.608

CC1(C)C(=O)C=C[C@]2(C)[C@H]3CC[C@@]4(C)[C@H](c5ccoc5)OC(=O)[C@H]5O[C@]54[C@]3(C)C=C[C@@H]12 [7-desacetoxy-6,7-dehydrogedunin]
ΔΨm [1, 4]: −1.799
ROS (reactive oxygen species; [4]): −3.492
GE-HTS (OXPHOS gene expression; [4]): −1.430
nucOX (nuOXPHOS transcripts; [4]): −0.695
mitoOX (mtOXPHOS transcripts; [4]): −2.631
cyt c (cytochrome c; [4]): 0.198
Viability (C2C12 myotubes; [4]): −0.973
MTT [2, 4]: −1.891

COc1ccc(-c2coc3c(OC)c(O)ccc3c2=O)cc1 [7-hydroxy-8,4′-dimethoxyisoflavone]
ΔΨm [1, 4]: −0.417
ROS (reactive oxygen species; [4]): 1.404
GE-HTS (OXPHOS gene expression; [4]): −0.962
nucOX (nuOXPHOS transcripts; [4]): −0.994
mitoOX (mtOXPHOS transcripts; [4]): −0.667
cyt c (cytochrome c; [4]): 0.363
Viability (C2C12 myotubes; [4]): −1.022
MTT [2, 4]: −1.073

COc1ccc2c(=O)ccoc2c1 [7-methoxychromone]
ΔΨm ([1]; composite Z-score vs DMSO): −0.875
ROS (reactive oxygen species; composite Z-score vs DMSO): 0.919
GE-HTS (OXPHOS gene expression; composite Z-score vs DMSO): −0.759
nucOX (nuOXPHOS transcripts; composite Z-score vs DMSO): −0.818
mitoOX (mtOXPHOS transcripts; composite Z-score vs DMSO): −0.451
cyt c (cytochrome c; composite Z-score vs DMSO): 0.511
Viability (C2C12 myotubes; composite Z-score vs DMSO): −0.999
MTT ([2]; composite Z-score vs DMSO): −0.963

COC(=O)C1(C)CCCC2(C)c3ccc(C(C)C)cc3C(=O)CC12 (stereo not shown) [7-oxocallitrisic acid, methyl ester]
ΔΨm ([1]; composite Z-score vs DMSO): 2.079
ROS (reactive oxygen species; composite Z-score vs DMSO): 0.162
GE-HTS (OXPHOS gene expression; composite Z-score vs DMSO): −0.876
nucOX (nuOXPHOS transcripts; composite Z-score vs DMSO): −0.457
mitoOX (mtOXPHOS transcripts; composite Z-score vs DMSO): −1.555
cyt c (cytochrome c; composite Z-score vs DMSO): −0.923
Viability (C2C12 myotubes; composite Z-score vs DMSO): 1.266
MTT ([2]; composite Z-score vs DMSO): 0.111
